Read-outs that look alike come from different tables or passages of the source.
What was measured:
[1] = tested on: native EpCAM expressed on the cell surface; assay: Binding affinities of EpCAM aptamers by flow cytometry; design: species or system human; settings: U118MG cells (EpCAM negative); read-out: KD (±SEM)
Procedure: (§1) Cells were harvested at 80% confluence with trypsin digestion and resuspended in washing buffer (DPBS with 5 mM MgCl2) and enumerated. Following centrifugation (1000×g for 5 min), the cell pellet was resuspended in assay buffer (DPBS supplemented with 5 mM MgCl2, 0.1 mg/ml tRNA, 0.1 mg/ml salmon sperm DNA, 0.2% [w/v] sodium azide, and 5% FCS) and diluted to 1×10^6/mL. The blocking step was carried out at 4′C. The binding of the aptamers was carried out at 37′C for 30 min or 4′C for 1 h, with the final concentration of magnesium chloride being 2.5 mM in all binding assays.
(§2) The equilibrium dissociation constant (K′d) of successful 2′-fluoropyrimidine RNA aptamer species to native EpCAM expressed on the cell surface was determined using flow cytometry with EpCAM-positive and -negative cell lines and a negative control (2-O-methyl-pyrimidine) aptamer (5′-DY647-mGCmGACUmGmGUUmACCCmGmGUCmGdT-3′) (SEQ ID NO:13). Kato III or U118MG cells (5×10^5) were first incubated with assay buffer followed by two washes with binding buffer prior to incubation with serial concentrations (approximately 10-fold above and below the apparent K′d) of FITC-labelled aptamer in a 100 μL assay buffer for 1 h on ice. The cells were washed three times, resuspended in 150 μL assay buffer containing 2.5 mM MgCl2 and subjected to flow cytometric analyses. The FITC-labelled unselected library was used as another negative control. The mean fluorescence intensity (MFI) of the unselected library was subtracted from that of the aptamer-target cell to generate the MFI of specific binding. The K′d for each aptamer was determined by Scatchard analysis according to the equation: [Bound aptamer]/[aptamer]=−(1/KD)×[bound aptamer]+([T]tol/KD) where [T]tot represents the total target concentration. Design and Generation of EpCAM Aptamer-siRNA Chimera
(§3) The binding affinities of both aptamers have been characterised against all five cell lines used in this study by flow cytometry, and the results are shown in Table 1.

[2] = target: T1, native EpCAM expressed on the cell surface (Homo sapiens, UniProt P16422); assay: as above; settings: read-out: KD (±SEM)
T1 construct: host or cells: T47D, MCF7, MDA-MB-231, HT-29 (EpCAM-positive); U118MG (EpCAM-negative control)
T1 sequence (P16422 24-314): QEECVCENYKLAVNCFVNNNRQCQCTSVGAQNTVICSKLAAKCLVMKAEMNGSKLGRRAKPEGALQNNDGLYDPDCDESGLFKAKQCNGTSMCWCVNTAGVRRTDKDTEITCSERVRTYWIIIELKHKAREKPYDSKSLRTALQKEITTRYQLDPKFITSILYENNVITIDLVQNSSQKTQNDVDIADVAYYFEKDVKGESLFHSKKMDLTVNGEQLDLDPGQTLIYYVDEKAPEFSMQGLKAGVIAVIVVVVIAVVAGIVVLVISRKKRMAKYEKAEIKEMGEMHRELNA
Procedure: as §1, §2, §3

5′-ACGUAUCCCUUUUCGCGUA-3′ (RNA aptamer, fluorescent dye conjugate used, modifications not given here, further chemistry not given here) [compound 23]
Kd [1]: > 1 µM | Kd ([2]; HT29 cells): 0.037 ± 0.0236 µM | Kd ([2]; MCF7 cells): 0.0637 ± 0.0404 µM | Kd ([2]; MDA-MB-231 cells): 0.0867 ± 0.0685 µM | Kd ([2]; T47D cells): 0.0412 ± 0.0292 µM

5′-DY647-mGCmGACUmGmGUUmACCCmGmGUCmGdT-3′ (GCGACUGGUUACCCGGUCGN; 5' DY647, 2'-O-methyl, 3' dT, further chemistry not given here) [Control]
Kd [1]: > 1 µM | Kd ([2]; HT29 cells): 0.837 ± 0.265 µM | Kd ([2]; MCF7 cells): > 1 µM | Kd ([2]; MDA-MB-231 cells): > 1 µM | Kd ([2]; T47D cells): > 1 µM

Reference: patent US9567586B2, “EpCAM aptamer for detection of cancer stem cells” (DEAKIN UNIVERSITY, priority 2012, dated 2017)
